We go through two compounds from patent US20090226500A1, “SUTURES AND ANTI-SCARRING AGENTS” (Angiotech Pharmaceuticals, Inc, priority 2006, published 2009).

The subject of experiment [1] is IL-8 production by THP-1 cells. As to the kind of experiment: IL-8 production by macrophages. The format is cell-based, human. Conditions: Homo sapiens, read-out: IC50 IL-8 production. On the procedure:
The human macrophage cell line, THP-1 was plated in a 12 well plate such that each well contains 1×10^6 cells in 2 ml of media containing 10% FCS. Opsonized zymosan was prepared by resuspending 20 mg of zymosan A in 2 ml of ddH2O and homogenizing until a uniform suspension was obtained. Homogenized zymosan was pelleted at 250 g, resuspended in 4 ml of human serum for a final concentration of 5 mg/ml, and incubated in a 37° C. water bath for 20 minutes to enable opsonization. Geldanamycin was prepared in DMSO at a concentration of 10^−2 M and serially diluted 10-fold to give a range of stock concentrations (10^−8 M to 10^−2 M).
THP-1 cells were stimulated to produce IL-8 by the addition of 1 mg/ml opsonized zymosan. Geldanamycin was added to THP-1 cells by directly adding DMSO stock solutions, prepared earlier, at a 1/1000 dilution, to each well. Each drug concentration was tested in triplicate wells. Plates were incubated at 37° C. for 24 hours.
After a 24-hour stimulation, supernatants were collected to quantify IL-8 production. IL-8 concentrations in the supernatants were determined by ELISA using recombinant human IL-8 to obtain a standard curve. A 96-well MAXISORB plate was coated with 100 μL of anti-human IL-8 Capture Antibody diluted in Coating Buffer (0.1M sodium carbonate pH 9.5) overnight at 4° C. The dilution of Capture Antibody used was lot-specific and was determined empirically. Capture antibody was then aspirated and the plate washed 3 times with Wash Buffer (PBS, 0.05% TWEEN-20). Plates were blocked for 1 hour at room temperature with 200 μL/well of Assay Diluent (PBS, 10% FCS pH 7.0). After blocking, plates were washed 3 times with Wash Buffer. Standards and sample dilutions were prepared as follows: (a) sample supernatants were diluted 1/100 and 1/1000; (b) recombinant human IL-8 was prepared at 200 pg/ml and serially diluted to yield as standard curve of 3.1 pg/ml to 200 pg/ml Sample supernatants and standards were assayed in triplicate and were incubated at room temperature for 2 hours after addition to the plate coated with Capture Antibody The plates were washed 5 times and incubated with 100 μL of Working Detector (biotinylated anti-human IL-8 detection antibody+avidin-HRP) for 1 hour at room temperature. Following this incubation, the plates were washed 7 times and 100 μL of Substrate Solution (Tetramethylbenzidine, H2O2) was added to plates and incubated for 30 minutes at room temperature. Stop Solution (2 NH2SO4) was then added to the wells and a yellow color reaction was read at 450 nm with A correction at 570 nm. Mean absorbance was determined from triplicate data readings and the mean background was subtracted. IL-8 concentration values were obtained from the standard curve. […] The IC50 values for the following additional compounds were determined using this assay: IC50 (nM): 17-AAG, 56; mycophenolic acid, 549; resveratrol, 507; rapamycin, 4; 41; SP600125, 344; halofuginone, 641; D-mannose-6-phosphate, 220; epirubicin hydrochloride, 654; topotemay, 257; mithramycin, 33; daunorubicin, 421; celastrol, 490; chromomycin A3, 36

In another experiment the test system is human fibroblasts. As to the kind of experiment: Cell proliferation of fibroblasts. Format: cell-based. As to conditions: Fibroblast, 72 hours, CYQUANT, read-out: IC50 cell proliferation of fibroblasts. The gist of the method: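 Human fibroblasts plated at 600 cells/well, attached overnight, then exposed to drug in triplicate for 72 h at 37°C. Cell content read with CYQUANT GR dye in lysis buffer after 3-5 min at room temperature.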

The subject of another experiment is Smooth muscle cells. As to the kind of experiment: Proliferation of smooth muscle cells. Format: cell-based. As to conditions: 72 hours, CYQUANT; read-out: IC50 proliferation of smooth muscle cells. The method in brief: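 Smooth muscle cells at 600 cells/well, exposed to paclitaxel (DMSO stocks 10^−8 to 10^−2 M) in triplicate for 72 h at 37 °C. Proliferation read with CyQUANT GR dye in lysis buffer.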

The subject of experiment [2] is TNFα production by THP-1 cells. As to the kind of experiment: TNF-alpha production by macrophages. Conditions: Homo sapiens; THP-1 cells stimulated with opsonized zymosan, 24 hours; read-out: IC50 TNFα production. The format is cell-based, human. The gist of the method:
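THP-1 cells (1×10^6 per well, 10% FCS) were stimulated with 1 mg/ml serum-opsonized zymosan and incubated with drug in triplicate for 24 h at 37 °C. TNFα in the supernatants was quantified by sandwich ELISA (HRP/TMB read-out) against a recombinant human TNFα standard curve.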

Read-outs that look alike come from different tables or passages of the source.

As to `CC1=C(O)C(=O)C=C2C1=CC=C1[C@@]2(C)CC[C@@]2(C)[C@@H]3C[C@](C)(C(=O)O)CC[C@]3(C)CC[C@]12C` [celastrol], the IC50 in experiment [1] (THP-1, 24 h) was 490 nM; in the experiment on human fibroblasts, 100 to 600 nM; in the experiment with Smooth muscle cells, 493 nM; in experiment [2], 87 nM.
With `COc1c(C)c2c(c(O)c1C/C=C(\C)CCC(=O)O)C(=O)OC2` [mycophenolic acid], the IC50 in experiment [1] (THP-1 cells stimulated with opsonized zymosan, 24 hours) was 549 nM; in the experiment with human fibroblasts, 100 to 600 nM; in the experiment with Smooth muscle cells, 579 nM; in experiment [2] it was 756 nM.
